These results are taken from patent US20070292440A1, “CD154 blockade therapy for pancreatic islet tissue transplantation” (priority 1997, published 2007).

Where “and” joins values, the source holds several entries; their conditions need not be identical. Identical values can stand only once.

In data set [1] the test system is islet allografts in pancreatectomized baboons. Description: Baboon model of islet cell transplantation (ICT) for pancreatectomy-induced diabetes. In kind it is in vivo, Baboon (Papio hamadryas). As to the method: Identification of donor-recipient pairs. Peripheral blood mononuclear cells (PBMC) from 10 potential recipients (Baboons, Papio hamadryas, male and female, 1-2 years of age, approximately 4.0 kg) from the Mannheimer facility (Homestead, Fla.) were used as responders against PBMC from 11 male donors (over 2 years of age, purchased from the Southwest Foundation in Texas) in a one way mixed leukocyte culture (MLC). The baboon MLC was performed via standardized methods for human MLC. […] The donors were of a sufficient size that enough islets and bone marrow were obtained from 1 donor to allow for transplantation into 2 recipients. […] An attempt was made to choose two recipients with similar MLC reactivity to the designated donor, and donor-recipient pairs with varying degrees of alloreactivity were chosen.
Islet/bone marrow preparation and administration.
For studies on enhancing tolerance, vertebral body was harvested from the pancreas donor and processed to obtain donor bone marrow cells (DBMC) generally according to routine modifications of methods for processing of human vertebral bodies. For recipients of donor bone marrow, infusions were administered on days 5 and II post ICT. A total dose of 10^9 nucleated cells per kg recipient body weight was given.
Pancreatectomy and ICT. […] The number of IEQ was determined immediately prior to transplantation. Total pancreatectomy was performed according to established surgical techniques. After completion of the total pancreatectomy, a 20G angiocatheter was inserted into one of the mesenteric vessel tributaries of the portal vein, and ICT was accomplished by gravity infusion of the islet preparation over a 10 min period.
Immunosuppression and post-operative care. FK506 (tacrolimus) was chosen as the immunosuppressant, as this drug is currently utilized in human ICT. FK506 administration commenced at 5 days prior to ICT. A dosage of 0.1 mg/kg/day, i.m. was administered to recipient baboons. Drug levels were monitored daily and dosage was adjusted to maintain trough levels of approximately 15 ng/ml.
For the first post-operative day (study day 1, or POD 1), the baboons were given intravenous fluids. The animals were subsequently fed a diet containing 60 g of carbohydrate per day, with 45 g of monkey biscuits (supplemented with viokase) and 15 g of fruit.
Monitoring. Fasting and post-prandial blood glucose (FG and PPG, respectively) were monitored via heel stick and blood testing with a Glucometer Elite, and at least once weekly, a blood sample was drawn to obtain plasma for testing of FG levels with a Beckman glucose analyzer. In general a blood sample was also obtained to confirm unusually high readings. […] At approximately 3 months post-transplant, testing was decreased to every other week. The blood samples were used for phenotyping of peripheral blood to assess leukocyte subsets and determination of CBC and chemistries, 5c8 and anti-5c8 levels, insulin and C-peptide levels, and chimerism. Blood was drawn periodically for retesting of MLC reactivity to donor and 3rd party antigens.

Data set [2] concerns islet allografts in pancreatectomized diabetic rhesus monkeys. Nature of the data set: Rhesus monkey model of ICT for pancreatectomy-induced diabetes. In kind it is in vivo. The conditions noted are these: induction days -1, 0, 3, 10 + monthly maintenance, monotherapy. The protocol:
Unless specified, all procedures were generally as described above for the baboon model studies.
Animal procedures. SPF rhesus monkeys, 2-7 years of age, are readily available from COVANCE (Alice, Tex.) or the Mannheimer Foundation, Inc. (Homestead, Fla.) or similar vendors. Upon admission, all monkeys are examined to determine their general health, physical condition, and psychological status. All surgical procedures are carried under aseptic conditions. Animals are fasted for 12-18 hours before surgery and will be pre-anesthetized with i.m. ketamine (10 mg/kg) and atropine (0.04 mg/kg). Once the animal is sedated, an endotracheal tube and an i.v. catheter are promptly installed. The endotracheal tube is used to protect the airway and provide easy access for emergency drugs. The animals are anesthetized with an isoflurane and oxygen combination. Normal saline solution for injection is infused through the catheter throughout the entire ICT procedure at a rate of 10 ml/kg/hour.
A midline incision is made to gain access to the abdominal organs. For both donor and recipient animals, a total pancreatectomy is performed with preservation of the duodenum. […]
Monitoring. […] Fasting blood glucose (FG) levels are determined by using a lancet to prick the heel, to obtain a small drop of blood for placement on a glucometer strip. […]

Data set [3] relates to islet allograft function (glucose metabolism) in baboons. Description: Intravenous glucose tolerance testing (IVGTT) of baboon islet allograft recipients. In kind it is in vivo, Baboon (Papio hamadryas). The protocol: Intravenous Glucose Tolerance Testing (IVGTT). It has been previously shown that in vivo islet-cell function tests give an accurate reflection of changes in β cell mass. (McCulloch et al., Diabetes 40: 673-679, 1991). Intravenous glucose tolerance tests were carried out after a 16- to 18-h overnight fast, as previously described (Lehmann et al., J. Med. Primatol. 26: 312-321, 1997). In brief, blood samples were collected at −10, −5, and 0 min. Then 0.5 g glucose per kg of body weight in a 50% glucose solution was injected over 20 seconds into the saphenous vein. 1.5 ml samples were collected from the contralateral femoral artery at 1, 3, 5, 7, 10, 15, 20, 25, 30 min post injection. Thus, a total of 12 blood samples were withdrawn over a […] period. The samples were drawn into glass tubes containing 0.05 ml 15% fluid EDTA and 0.2 ml trasylol (500 K.I.U. aprotinin/ml blood), placed on ice, and centrifuged within 10 minn. Plasma was then frozen at −80° C. and assayed later for glucose, immunoreactive insulin, and glucagon.
Statistical analysis and calculations. Results are set forth as means ±SEM. The glucose disappearance constant (Kg) was calculated from the IVGTT as the slope of the decline of the loge (In) plasma glucose between 10 and 30 min. after the glucose injection, multiplied by 100. The acute insulin response to glucose (AIRG) was calculated as the incremental area under the insulin curve (AUC) between 1-10 min after the IV glucose injection. The incremental responses (AUCGlucose, AUCInsulin) were calculated by means of the trapezoidal rule with subtraction of the basal values from 1 to 30 minutes, Data were analyzed with Statistica for Windows software (Version 5.0, 1997. Statsoft Inc., Tulsa, Okla., USA).

Take `C=CC[C@@H]1/C=C(\C)C[C@H](C)C[C@H](OC)[C@H]2O[C@@](O)(C(=O)C(=O)N3CCCC[C@H]3C(=O)O[C@H](/C(C)=C/[C@@H]3CC[C@@H](O)[C@H](OC)C3)[C@H](C)[C@@H](O)CC1=O)[C@H](C)C[C@@H]2OC` [FK506, tacrolimus, reference compound]: the “day of islet allograft rejection” value in data set [1] (Baboon, FK506 alone) was determined as 10 day; in data set [1] (Baboon, FK506 in combination with stem cell selected marrow) it was 10 day; in data set [1] (Baboon, FK506 in combination with whole bone marrow), 8 day.
As to “Anti-CD154: humanized MAb having the antigen-specific binding properties of MAb 5c8; CD154 (CD40L) blocking agent”, in data set [1] (4 out of 5 baboons), the “islet allograft survival versus control or FK506 treated animals” value is “extended islet allograft survival”. For the same compound, in data set [1] (Baboon, Induction + Anti-Rejection regimen, animal received a reduced dose of 5c8), the “Duration (in PODs) of Insulin Independence” value turned out to be 8 PODs. In data set [1] (Baboon, induction 20 mg/kg days -1, 3, 10 + monthly maintenance from POD 28, bone marrow infusions PODs 5 and 11, listed as 5C8), the “POD until which graft was maintained after treatment for rejection” value is 162 POD and 124 POD. Besides, in data set [1] (Baboon, other animals in the study, range of survivals, listed as hu5c8), the “graft survival of functioning islet allografts” value was > 125 days and > 220 days. Further, the “islet allograft function and rejection episodes” value in data set [2] is reported as “functional islet allografts are maintained without the occurrence of rejection episodes”. The “adverse effect on insulin secretion or overall insulin sensitivity” value in data set [3] (baboon studies) is “no adverse effect”. Besides, the “FPIS (first phase insulin secretion) after islet transplantation” value in data set [3] (baboons on maintenance therapy, follow-up 16 weeks) was “well preserved”. Further, the “Kg values (glucose disappearance constant) in repeated IVGTT” value in data set [3] (baboons treated at the time of rejection, after 8 postoperative weeks) is “decline”; in data set [3] (baboons treated with maintenance doses), “Stable values”.
